Calls of active or inactive are those of the source. The calls are words filed in the database; no cut-off is given here.
Assays:
[1] = biological target: Beta-2 adrenergic receptor (Homo sapiens) (UniProt P07550); experiment: Binding affinity to human adrenergic beta-2 receptor
[2] = biological target: D(2) dopamine receptor (Homo sapiens) (UniProt P14416); experiment: Binding affinity to human dopamine D2 receptor
D(3) dopamine receptor = D(3) dopamine receptor (Homo sapiens, UniProt P35462); experiment: Binding affinity to human dopamine D3 receptor
D(3) dopamine receptor, sequence (P35462 whole entry): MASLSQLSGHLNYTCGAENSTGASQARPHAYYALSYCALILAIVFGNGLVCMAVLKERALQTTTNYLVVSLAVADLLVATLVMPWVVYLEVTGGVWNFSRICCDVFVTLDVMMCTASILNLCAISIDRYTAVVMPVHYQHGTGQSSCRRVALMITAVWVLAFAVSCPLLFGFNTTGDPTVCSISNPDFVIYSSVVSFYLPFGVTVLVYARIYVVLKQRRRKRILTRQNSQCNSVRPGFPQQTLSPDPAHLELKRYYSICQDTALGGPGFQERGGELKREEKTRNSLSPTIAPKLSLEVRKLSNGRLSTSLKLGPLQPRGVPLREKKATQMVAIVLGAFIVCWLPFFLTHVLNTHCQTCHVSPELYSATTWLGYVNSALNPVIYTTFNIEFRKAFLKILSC

[3] = biological target: T1, Adrenergic receptor alpha-1 (Homo sapiens, UniProt P35348+P25100+P35368); experiment: Binding affinity to human adrenergic alpha-1 receptor; type: protein assay
T1 sequence (P35348 whole entry): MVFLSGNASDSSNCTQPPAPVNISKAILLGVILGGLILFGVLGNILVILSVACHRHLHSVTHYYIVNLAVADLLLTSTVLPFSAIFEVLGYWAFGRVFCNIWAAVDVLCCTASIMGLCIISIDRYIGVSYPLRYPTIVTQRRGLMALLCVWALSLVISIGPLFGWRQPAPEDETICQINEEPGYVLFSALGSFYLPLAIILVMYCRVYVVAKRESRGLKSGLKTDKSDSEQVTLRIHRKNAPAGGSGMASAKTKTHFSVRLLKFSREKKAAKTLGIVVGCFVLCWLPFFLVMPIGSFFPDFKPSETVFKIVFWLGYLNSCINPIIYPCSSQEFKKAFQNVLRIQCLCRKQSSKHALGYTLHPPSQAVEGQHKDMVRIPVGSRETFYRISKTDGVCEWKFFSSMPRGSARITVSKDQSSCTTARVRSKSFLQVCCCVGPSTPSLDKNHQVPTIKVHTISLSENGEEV
T1 sequence (P25100 whole entry): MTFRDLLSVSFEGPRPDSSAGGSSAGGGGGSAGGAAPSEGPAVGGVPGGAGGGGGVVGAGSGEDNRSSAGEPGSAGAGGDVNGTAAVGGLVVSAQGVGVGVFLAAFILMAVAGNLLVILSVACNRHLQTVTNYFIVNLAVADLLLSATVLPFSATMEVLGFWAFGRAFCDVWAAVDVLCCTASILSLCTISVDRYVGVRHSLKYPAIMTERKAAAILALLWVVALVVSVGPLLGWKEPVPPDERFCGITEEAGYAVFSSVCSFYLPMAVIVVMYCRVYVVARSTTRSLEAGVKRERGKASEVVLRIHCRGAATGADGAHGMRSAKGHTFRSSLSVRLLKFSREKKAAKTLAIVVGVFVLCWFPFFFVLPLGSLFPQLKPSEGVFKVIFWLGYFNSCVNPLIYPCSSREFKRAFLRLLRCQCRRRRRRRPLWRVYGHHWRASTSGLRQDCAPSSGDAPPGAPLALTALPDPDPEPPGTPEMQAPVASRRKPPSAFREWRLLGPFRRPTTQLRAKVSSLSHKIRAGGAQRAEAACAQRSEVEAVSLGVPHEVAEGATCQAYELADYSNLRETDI
T1 sequence (P35368 whole entry): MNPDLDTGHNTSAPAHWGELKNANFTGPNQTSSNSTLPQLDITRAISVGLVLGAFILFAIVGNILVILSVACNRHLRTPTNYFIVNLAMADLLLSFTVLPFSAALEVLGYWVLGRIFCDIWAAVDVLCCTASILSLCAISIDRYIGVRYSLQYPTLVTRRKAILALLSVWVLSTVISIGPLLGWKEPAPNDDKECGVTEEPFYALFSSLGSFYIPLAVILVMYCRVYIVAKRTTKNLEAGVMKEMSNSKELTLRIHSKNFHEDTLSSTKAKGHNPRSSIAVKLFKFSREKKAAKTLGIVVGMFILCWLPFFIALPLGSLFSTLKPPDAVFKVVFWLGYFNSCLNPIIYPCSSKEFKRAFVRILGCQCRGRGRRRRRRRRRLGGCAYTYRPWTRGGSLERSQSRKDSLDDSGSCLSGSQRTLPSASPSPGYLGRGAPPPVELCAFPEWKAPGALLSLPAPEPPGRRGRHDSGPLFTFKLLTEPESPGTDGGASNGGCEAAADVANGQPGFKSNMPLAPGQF

[4] = Plasma clearance in orally dosed rat; type: ADME, organism-based; settings: po
Rattus norvegicus [5] = experiment: Volume of distribution in orally dosed rat; type: ADME, organism-based; settings: in vivo, po
[6] = Half life in orally dosed rat; type: ADME, organism-based; settings: in vivo, po
[7] = Bioavailability in orally dosed rat; type: ADME, organism-based; settings: in vivo, po
[8] = Ratio of drug level in brain against plasma in orally dosed rat; type: ADME, organism-based; settings: po, read-out: BPR
Rattus norvegicus [9] = experiment: Drug level in orally dosed rat brain; type: ADME, organism-based; settings: in vivo, po
[10] = biological target: 5-hydroxytryptamine receptor 7 (Homo sapiens, UniProt P34969); experiment: Binding affinity to human 5HT7 receptor
5-hydroxytryptamine receptor 7, sequence (P34969 whole entry): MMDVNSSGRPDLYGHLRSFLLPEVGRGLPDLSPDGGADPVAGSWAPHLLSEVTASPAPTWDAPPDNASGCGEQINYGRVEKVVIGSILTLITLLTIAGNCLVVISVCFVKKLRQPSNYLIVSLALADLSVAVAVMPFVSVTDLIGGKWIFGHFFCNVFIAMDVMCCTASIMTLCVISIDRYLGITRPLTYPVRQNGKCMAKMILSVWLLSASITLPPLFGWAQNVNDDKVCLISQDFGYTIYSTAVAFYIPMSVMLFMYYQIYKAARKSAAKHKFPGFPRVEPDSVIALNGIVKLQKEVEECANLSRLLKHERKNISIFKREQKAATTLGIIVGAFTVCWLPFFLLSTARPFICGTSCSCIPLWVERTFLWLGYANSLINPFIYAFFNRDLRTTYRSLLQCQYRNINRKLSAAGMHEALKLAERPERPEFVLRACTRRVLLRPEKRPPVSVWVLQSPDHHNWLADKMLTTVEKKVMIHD

[11] = biological target: 5-hydroxytryptamine receptor 6 (Homo sapiens, UniProt P50406); experiment: Binding affinity to human 5HT6 receptor
5-hydroxytryptamine receptor 6, sequence (P50406 whole entry): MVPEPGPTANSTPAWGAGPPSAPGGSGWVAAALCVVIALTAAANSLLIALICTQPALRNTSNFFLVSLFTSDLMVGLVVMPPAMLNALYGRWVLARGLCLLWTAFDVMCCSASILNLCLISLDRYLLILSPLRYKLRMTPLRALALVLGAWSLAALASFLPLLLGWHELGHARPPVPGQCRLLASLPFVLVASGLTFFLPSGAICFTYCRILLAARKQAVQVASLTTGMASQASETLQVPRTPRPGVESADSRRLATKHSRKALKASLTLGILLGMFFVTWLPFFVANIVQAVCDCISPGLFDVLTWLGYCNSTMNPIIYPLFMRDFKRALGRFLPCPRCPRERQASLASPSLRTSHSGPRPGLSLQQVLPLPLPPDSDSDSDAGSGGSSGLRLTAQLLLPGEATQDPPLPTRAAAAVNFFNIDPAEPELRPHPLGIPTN

[12] = biological target: T2, 5-hydroxytryptamine receptor 2C (Homo sapiens, UniProt P28335); experiment: Binding affinity to human 5HT2C receptor
T2 sequence (P28335 whole entry): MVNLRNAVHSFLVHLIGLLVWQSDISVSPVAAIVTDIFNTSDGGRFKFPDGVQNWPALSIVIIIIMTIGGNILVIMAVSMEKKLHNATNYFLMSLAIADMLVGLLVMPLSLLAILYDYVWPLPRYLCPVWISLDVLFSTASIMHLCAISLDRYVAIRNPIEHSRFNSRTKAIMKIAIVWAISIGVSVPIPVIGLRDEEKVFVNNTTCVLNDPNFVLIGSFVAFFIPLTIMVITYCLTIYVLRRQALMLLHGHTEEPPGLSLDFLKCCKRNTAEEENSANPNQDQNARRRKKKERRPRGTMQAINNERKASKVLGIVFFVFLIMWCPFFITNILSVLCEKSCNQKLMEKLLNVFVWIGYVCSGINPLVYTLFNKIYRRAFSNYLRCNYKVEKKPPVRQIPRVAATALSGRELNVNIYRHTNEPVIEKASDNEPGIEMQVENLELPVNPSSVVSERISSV

[13] = biological target: 5-hydroxytryptamine receptor 2A (Homo sapiens, UniProt P28223); experiment: Binding affinity to human 5HT2A receptor
5-hydroxytryptamine receptor 2A, sequence (P28223 whole entry): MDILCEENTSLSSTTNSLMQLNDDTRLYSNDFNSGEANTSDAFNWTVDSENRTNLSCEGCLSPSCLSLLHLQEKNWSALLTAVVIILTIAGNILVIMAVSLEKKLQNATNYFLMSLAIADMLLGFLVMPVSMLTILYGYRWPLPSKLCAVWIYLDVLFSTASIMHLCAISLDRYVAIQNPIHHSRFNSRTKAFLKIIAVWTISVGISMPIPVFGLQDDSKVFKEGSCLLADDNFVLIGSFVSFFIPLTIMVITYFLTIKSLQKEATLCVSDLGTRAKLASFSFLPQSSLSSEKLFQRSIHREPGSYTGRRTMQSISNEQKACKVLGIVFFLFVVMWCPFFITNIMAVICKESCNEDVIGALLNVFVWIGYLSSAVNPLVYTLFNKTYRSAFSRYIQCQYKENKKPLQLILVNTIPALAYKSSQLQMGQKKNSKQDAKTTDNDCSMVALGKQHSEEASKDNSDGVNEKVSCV

[14] = biological target: 5-hydroxytryptamine receptor 2B (Homo sapiens, UniProt P41595); experiment: Binding affinity to human 5HT2B receptor
5-hydroxytryptamine receptor 2B, sequence (P41595 whole entry): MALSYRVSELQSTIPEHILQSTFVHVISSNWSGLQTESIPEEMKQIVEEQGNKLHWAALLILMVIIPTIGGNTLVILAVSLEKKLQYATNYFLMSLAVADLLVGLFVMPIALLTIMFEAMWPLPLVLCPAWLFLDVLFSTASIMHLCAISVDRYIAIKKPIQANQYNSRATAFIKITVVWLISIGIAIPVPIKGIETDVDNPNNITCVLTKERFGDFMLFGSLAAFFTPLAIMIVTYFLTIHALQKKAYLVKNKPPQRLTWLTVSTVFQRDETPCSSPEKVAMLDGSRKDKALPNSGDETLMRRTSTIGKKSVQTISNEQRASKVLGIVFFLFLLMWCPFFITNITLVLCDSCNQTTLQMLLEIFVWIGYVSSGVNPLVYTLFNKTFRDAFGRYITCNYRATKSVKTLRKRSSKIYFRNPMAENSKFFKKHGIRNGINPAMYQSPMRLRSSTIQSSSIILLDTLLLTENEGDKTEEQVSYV

[15] = biological target: T3, 5-hydroxytryptamine receptor 1A (Homo sapiens, UniProt P08908); experiment: Binding affinity to human 5HT1A receptor
T3 sequence (P08908 whole entry): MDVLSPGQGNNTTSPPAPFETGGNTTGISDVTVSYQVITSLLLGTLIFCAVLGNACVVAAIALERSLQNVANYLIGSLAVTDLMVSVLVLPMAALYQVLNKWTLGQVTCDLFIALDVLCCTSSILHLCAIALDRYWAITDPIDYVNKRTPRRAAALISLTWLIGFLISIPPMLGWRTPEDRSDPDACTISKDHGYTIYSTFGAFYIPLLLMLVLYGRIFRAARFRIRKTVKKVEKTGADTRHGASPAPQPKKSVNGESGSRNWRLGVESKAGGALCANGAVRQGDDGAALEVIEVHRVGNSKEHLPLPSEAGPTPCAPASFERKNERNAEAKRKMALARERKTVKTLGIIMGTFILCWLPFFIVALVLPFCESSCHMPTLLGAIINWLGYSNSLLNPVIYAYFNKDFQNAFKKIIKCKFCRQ

[16] = biological target: 5-hydroxytryptamine receptor 1B (Homo sapiens, UniProt P28222); experiment: Binding affinity to human 5HT1B receptor
5-hydroxytryptamine receptor 1B, sequence (P28222 whole entry): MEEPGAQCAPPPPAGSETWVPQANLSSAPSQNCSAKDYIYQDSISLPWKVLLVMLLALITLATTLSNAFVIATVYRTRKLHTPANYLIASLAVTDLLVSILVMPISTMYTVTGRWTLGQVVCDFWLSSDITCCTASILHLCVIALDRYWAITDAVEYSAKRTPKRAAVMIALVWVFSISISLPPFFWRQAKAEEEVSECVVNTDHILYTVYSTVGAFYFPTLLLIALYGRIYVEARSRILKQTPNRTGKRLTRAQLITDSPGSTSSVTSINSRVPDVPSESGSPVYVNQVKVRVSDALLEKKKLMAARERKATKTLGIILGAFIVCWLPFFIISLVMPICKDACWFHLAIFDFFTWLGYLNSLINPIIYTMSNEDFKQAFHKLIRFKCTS

[17] = biological target: 5-hydroxytryptamine receptor 1D (Homo sapiens, UniProt P28221); experiment: Binding affinity to human 5HT1D receptor
5-hydroxytryptamine receptor 1D, sequence (P28221 whole entry): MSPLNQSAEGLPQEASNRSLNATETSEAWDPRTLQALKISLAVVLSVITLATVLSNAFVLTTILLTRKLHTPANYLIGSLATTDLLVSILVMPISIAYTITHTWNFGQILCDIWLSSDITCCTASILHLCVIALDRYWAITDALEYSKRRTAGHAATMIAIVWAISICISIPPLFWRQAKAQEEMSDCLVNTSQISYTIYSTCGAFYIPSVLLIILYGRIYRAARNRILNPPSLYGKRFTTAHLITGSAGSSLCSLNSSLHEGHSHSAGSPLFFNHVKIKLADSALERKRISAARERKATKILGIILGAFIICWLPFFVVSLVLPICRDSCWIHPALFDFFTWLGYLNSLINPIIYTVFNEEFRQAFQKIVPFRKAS

D(2) dopamine receptor (Homo sapiens), sequence (P14416 whole entry): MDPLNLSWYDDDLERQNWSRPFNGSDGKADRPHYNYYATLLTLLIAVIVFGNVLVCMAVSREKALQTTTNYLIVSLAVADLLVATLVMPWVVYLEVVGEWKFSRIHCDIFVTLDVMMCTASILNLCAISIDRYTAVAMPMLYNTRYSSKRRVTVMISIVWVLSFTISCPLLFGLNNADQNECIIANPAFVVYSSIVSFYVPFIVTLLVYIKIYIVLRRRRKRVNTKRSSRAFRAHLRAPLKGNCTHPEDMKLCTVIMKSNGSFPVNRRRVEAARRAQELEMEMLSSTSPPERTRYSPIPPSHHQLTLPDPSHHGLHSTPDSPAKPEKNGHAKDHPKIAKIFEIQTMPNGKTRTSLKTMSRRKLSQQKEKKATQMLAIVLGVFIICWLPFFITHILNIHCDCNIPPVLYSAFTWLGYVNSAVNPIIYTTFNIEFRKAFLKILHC
Beta-2 adrenergic receptor (Homo sapiens), sequence (P07550 whole entry, looked up): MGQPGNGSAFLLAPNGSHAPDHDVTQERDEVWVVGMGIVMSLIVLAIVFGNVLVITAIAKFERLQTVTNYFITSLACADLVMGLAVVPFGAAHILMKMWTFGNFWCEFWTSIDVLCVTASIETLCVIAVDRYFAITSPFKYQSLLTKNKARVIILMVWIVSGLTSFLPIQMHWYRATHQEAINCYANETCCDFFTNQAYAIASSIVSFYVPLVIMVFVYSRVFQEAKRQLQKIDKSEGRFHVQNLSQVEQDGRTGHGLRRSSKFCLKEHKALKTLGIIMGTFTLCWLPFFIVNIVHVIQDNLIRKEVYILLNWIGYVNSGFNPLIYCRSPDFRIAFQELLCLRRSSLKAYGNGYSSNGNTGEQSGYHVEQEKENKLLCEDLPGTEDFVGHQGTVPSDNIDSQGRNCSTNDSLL

Activity [1]: inactive
Activity [2]: inactive
Ki (D(3) dopamine receptor): 0.457 µM
Log Ki [3]: -5.74
CL/F [4]: 59 mL/min/kg
Vdss (Rattus norvegicus [5]): 10.7 L
half-life [6]: 2.8 h
bioavailability [7]: 11%
Kp [8]: 3.9
Drug uptake (Rattus norvegicus [9]): 320 ng/g
Ki [10]: > 3.16 µM
Ki [11]: > 3.16 µM
Ki [12]: 0.000794 µM
Ki [13]: 0.631 µM
Ki [14]: 0.631 µM
Ki [15]: > 3.16 µM
Ki [16]: > 3.16 µM
Ki [17]: > 3.16 µM
SMILES: COc1ccc(N2CC=C(c3ccc(Cl)c(Cl)c3)C2=O)cc1OCCN1CCCCC1
